Test results published in EP0538469A1, “SULFONANILIDE DERIVATIVE AND MEDICINE” (NIPPON SHINYAKU COMPANY, LIMITED, priority 1990, dated 1991).
Where a name gives a salt, the structure may show the parent alone.

What was measured:
Format in all cases: in vivo
mice (ddY-strain, male) = assay: Acute toxicity, oral, mice; conditions: observed two weeks
Method: (§1) Numbers of mice (ddY-strain, male, 6-8 weeks age) and rats (SD strain, male, 6-7 weeks age) in each group were 4 and 6, respectively.
(§2) The drug to be tested was orally administered at the dose of 10 ml/kg using an oral probe to the animals which were fasted since one day before (for 16-18 hours). After giving the drug, the animals were returned to the state where both feed and water were available and the general symptom and the dead cases, if any, were checked for two weeks. The drug was suspended in physiological saline solution containing 0.5% of methylcellulose (0.5% MC) and the suspension was given to the animals by oral route.

rats (SD strain, male) = assay: Acute toxicity, oral, rats; conditions: observed two weeks
Method: as §1, §2

[1] = Acute toxicity, oral, rats; conditions: rat, in vivo, SD rats, read-out: Rats LD₅₀
Method: as §1, §2

male rabbits = assay: Action to intra urethral pressure and blood pressure, intravenous administration; conditions: i.v.; for Selectivity (B/A): BP(ED30%↑) / IUP(ED150%↑); for ED (30%) / ED (150%): Oryctolagus cuniculus, iv, anesthetized male rabbits; for ED (30%): dose increasing blood pressure to an extent of 30%, read-out: BP(B) [BP(ED30%↑)] (converted); for ED (150%): dose increasing intra urethral pressure to an extent of 150%, read-out: IUP(A) [IUP(ED150%↑)]
Method: The experiment was conducted using male rabbits of body weight of 1.4-3.1 kg under fasted condition. The animals were fixed at backs under uretrane(1.2g/kg s.c.) anesthesia, abdomen was subjected to a midline incision and bladder was exposed. In order to prevent the urine stored in the bladder on the intra urethral pressure, the urine in the bladder was compulsorily discharged out of the body. After that, a catheter was inserted into both ureters and the urine discharged from kidney was introduced outside.
The intra urethral pressure(IUP) at the urethra tract of about 0.5-1 cm distance from the neck of the bladder was measured using a microtip transducer transducer equipped with a baloon (filled with physiological saline solution) at the top end. Further, polyethylene tube was inserted into femoral artery to measure the blood pressure (BP).
The drug to be tested was injected into the vein of ear every fifteen minutes and the maximum responses of the increasing action of intra urethral pressure tract and of the increasing action of blood pressure were measured at each dose.

SMILES | Mice Dead/ Total (mice (ddY-strain, male); 1000 mg/kg) | Mice Dead/ Total (mice (ddY-strain, male); 3000 mg/kg) | Rats Dead/ Total (rats (SD strain, male); 30 mg/kg) | Rats Dead/ Total (rats (SD strain, male); 100 mg/kg) | Rats Dead/ Total (rats (SD strain, male); 300 mg/kg) | LD50 at 336 h [1] [mg/kg] | Selectivity (B/A) (male rabbits; hydrochloride) | ED (30%) (male rabbits) [mg/kg] | ED (150%) (male rabbits) [mg/kg] | Rats Dead/ Total (rats (SD strain, male); 500 mg/kg) | Selectivity (B/A) (male rabbits) | Rats Dead/ Total (rats (SD strain, male); 3 mg/kg) | Rats Dead/ Total (rats (SD strain, male); 10 mg/kg)
CS(=O)(=O)Nc1cccc(C(O)CN)c1.Cl (racemic) [(24A), (±)-3'-(2-Amino-1-hydroxyethyl)methanesulfonanilide hydrochloride, reference compound] | 0 / 4 | 3 / 4 | 0 / 6 | 1 / 6 | 1 / 6 | > 300 | 1.0 | 0.036 | 0.035 | – | – | – | –
CS(=O)(=O)Nc1ccc(F)c(C(O)CN)c1 (racemic) [(49A), (±)-3'-(2-Amino-1-hydorxyethyl)-4'-fluoromethanesulfonanilide hydrochloride] | 0 / 4 | – | – | 0 / 6 | – | > 500 | – | 0.044 | 0.02 | 1 / 6 | 2.2 | – | –
C[C@H](N)[C@H](O)c1cc(NS(C)(=O)=O)ccc1F (racemic) [(59A), (±)-erythro-3'-(2-Amino-1-hydroxypropyl)-4'-fluoromethanesulfonanilide hydrochloride] | – | – | – | 0 / 6 | – | > 100 | 1.9 | 0.083 | 0.044 | – | – | – | –
CNCC(O)c1ccc(F)c(NS(C)(=O)=O)c1.Cl (racemic) [(61A), (±)-2'-Fluoro-5'-(1-hydroxy-2-methylaminoethyl)methanesulfonanilide hydrochloride, reference compound] | – | – | – | – | 0 / 6 | > 300 | 1.2 | 0.037 | 0.031 | – | – | – | –
CS(=O)(=O)Nc1cc(C(O)CN)c(F)cc1F.Cl (racemic) [(63A), (±)-5'-(2-Amino-1-hydroxyethyl)-2',4'-difluoromethanesulfonanilide hydrochloride] | – | – | – | – | 0 / 6 | > 300 | 2.9 | 0.19 | 0.065 | – | – | – | –
CNCC(O)c1cc(NS(C)(=O)=O)ccc1Cl (racemic) [(67A), (±)-4'-Chloro-3'-(1-hydorxy-2-methylaminoethyl)methanesulfonanilide hydrochloride, reference compound] | – | – | – | – | 0 / 6 | > 300 | 4.2 | 2.93 | 0.7 | – | – | – | –
C[C@H](N)[C@H](O)c1ccc(F)c(NS(C)(=O)=O)c1 (racemic) [(70A), (±)-erythro-5'-(2-Amino-1-hydroxypropyl)-2'-fluoromethanesulfonanilide hydrochloride] | – | – | – | – | 2 / 6 | > 300 | 3.6 | 0.1 | 0.028 | – | – | – | –
CNCC(O)c1cc(NS(C)(=O)=O)c(F)cc1F.Cl (racemic) [(71A), (±)-2',4'-Difluoro-5'-(1-hydroxy-2-methylaminoethyl)methanesulfonanilide hydrochloride] | – | – | – | – | 0 / 6 | > 300 | 2.1 | 0.095 | 0.045 | – | – | – | –
CS(=O)(=O)Nc1cc(F)cc(C(O)CN)c1.Cl (racemic) [(73A), (±)-3'-(2-Amino-1-hydroxyethyl)-5'-fluoromethanesulfonanilide hydrochloride] | – | – | – | 1 / 6 | 5 / 6 | ~200 | 3.0 | 0.081 | 0.027 | – | – | – | –
CNC[C@H](O)c1ccc(F)c(NS(C)(=O)=O)c1 [(61B)] | – | – | 1 / 6 | 5 / 6 | 6 / 6 | 36.1 | – | – | – | – | – | 0 / 6 | 2 / 6
